Patent US11679107B2 (Eisai R&D Management Co., Ltd., priority 2018, dated 2023)
Where two headings read alike, the source gives them in different places.

How the values were obtained:
[1] = test system: Ad2 variant pre-mRNAs spliced in HeLa S3 nuclear extracts; assay: In vitro splicing assay (IVS), RT-qPCR of spliced product; format: biochemical; settings: for IC50: geometric mean; for Ratio Ad2.1/2.2: ratio of IVS IC50 Ad2.1 to Ad2.2
Method in brief: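 Read-out is one-step TaqMan RT-qPCR of spliced Ad2 mRNA with Ftz as reference, normalized to DMSO and fit by non-linear regression. Reactions held HeLa S3 nuclear extract, 2 ng Ad2-derived pre-mRNA and test compound, with 15 min preincubation. Splicing was started with ATP-containing activation buffer and run 90 min at 30 °C.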

SF3b complexes = molecular target: T1, SF3b complexes (Homo sapiens, UniProt O75533+Q7RTV0); assay: Scintillation proximity assay (SPA) with [3H]-labelled pladienolide probe; format: binding; settings: SF3B1 (WT); geometric mean; read-out: SPA-ATS GMean IC50 (nM) SF3B1 (WT)
T1 construct: endogenous in cells; host or cells: Nuclear extracts; A HeLa S3 extract preparation is described for the in vitro splicing assay
Method in brief: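 SF3b complexes captured from nuclear extracts on anti-SF3B1 antibody SPA beads; test compounds pre-incubated 30 min before 2.5 nM [3H]-pladienolide probe added, then 30 min incubation. Bound probe read by scintillation; values from non-linear regression of concentration–response curves.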

[2] = test system: NCI-H1568 cells (high MCL1); assay: Cell proliferation and viability, CellTiter-Glo, 72 hours; format: cell-based; settings: for GI50: geometric mean
Method in brief: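 ATP luminescence (CellTiter-Glo) was measured 72 h after treatment with compound at 10 μM–100 pM (11 points, half-log) in 0.1% DMSO. The Panc line was grown in RPMI-1640 plus insulin and 15% FBS, the other in 10% FBS. Data were normalised to time zero and vehicle controls, where −100% is cidal and 0% static.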

[3] = Ad2.1 pre-mRNA substrate, read-out: qPCR-IVS-ATS GMean IC50 (nM) Ad2.1
[4] = Ad2.2 pre-mRNA substrate, read-out: qPCR-IVS-ATS GMean IC50 (nM) Ad2.2
[5] = NCI-H1568, read-out: CTGlo-ATS GMean GI50 (nM) 72 h NCIH1568.1, NCIH1568.1 cells, 72 h
[6] = NCIH1568.1 cells, 72 h, −100% cidal, 0% static, 100% maximal growth
[7] = 72 h, NCIH1568.1, -100% = cidal, 0% = static, 100% = uninhibited growth
[8] = NCI-H1568, read-out: CTGlo-ATS GMean GI50 (nM) 72 h NCIH1568.1, 72 h, NCIH1568.1
[9] = NCI-H1568, 72 h, read-out: CTGlo-ATS GMean GI50 (nM) 72 h NCIH1568.1, 72 h, NCIH1568.1
[10] = NCI-H1568, 72 h, read-out: CTGlo-ATS GMean GI50 (nM) 72 h NCIH1568.1, NCIH1568.1 cells, 72 h

| SMILES | IC50 [1, 3] [nM] | IC50 [1, 4] [nM] | IC50 (SF3b complexes) [nM] | GI50 [2, 5] [nM] | CTGlo-ATS Mean MinResponse % 72 h NCIH1568.1 [2, 6] [%] | Ratio Ad2.1/2.2 [1] | CTGlo-ATS Mean MinResponse % 72 h NCIH1568.1 [2, 7] [%] | GI50 [2, 8] [nM] | GI50 [2, 9] [nM] | GI50 [2, 10] [nM] |
| --- | --- | --- | --- | --- | --- | --- | --- | --- | --- | --- |
| C/C(=C\c1cc(F)cc(N(C)C2CCN(C(=O)c3cnco3)CC2)c1)[C@H]1OC(=O)C[C@H](O)CC[C@H](C)[C@@H](OC(=O)N2CCN(C)CC2)/C=C/[C@@H]1C [Compound 188] | 7.41 | 5.63 | 2.61 | 2.77 | −79.922 |  |  |  |  |  |
| C/C(=C\c1cc(F)cc(N2CCN(C(=O)Cn3cccn3)CC2)c1)[C@H]1OC(=O)C[C@H](O)CC[C@H](C)[C@@H](OC(=O)N2CCN(CCO)CC2)/C=C/[C@@H]1C [Compound 234, [(2S,3S,4E,6R,7S,10R)-2-[(E)-1-[3-fluoro-5-[4-(2-pyrazol-1-ylacetyl)piperazin-1-yl]phenyl]prop-1-en-2-yl]-10-hydroxy-3,7-dimethyl-12-oxo-1-oxacyclododec-4-en-6-yl] 4-(2-hydroxyethyl)piperazine-1-carboxylate] | 13.1 | 16.5 | 3.16 |  |  | 0.793 | −81.384 | 5.2 |  |  |
| C/C(=C\c1cc(F)cc(N2CCN(CC(=O)O)CC2)c1)[C@H]1OC(=O)C[C@H](O)CC[C@H](C)[C@@H](OC(=O)N2CCNCC2)/C=C/[C@@H]1C [Compound 264] | 33.4 | 72.4 | 35.7 |  |  | 0.461 | −21.716 |  | 143 |  |
| C/C(=C\c1cc(F)c2nnn([C@H](C)CO)c2c1)[C@H]1OC(=O)C[C@H](O)CC[C@H](C)[C@@H](OC(=O)N2CCN(C)CC2)/C=C/[C@@H]1C [Compound 150] | 8.58 | 11 | 1.32 | 2.19 | −68.000 |  |  |  |  |  |
| C/C(=C\c1cc(F)cc(N2CCCN(CC3CC3)C2=O)c1)[C@H]1OC(=O)C[C@H](O)CC[C@H](C)[C@@H](OC(=O)N2CCN(C)CC2)/C=C/[C@@H]1C [Compound 80] | 6.64 | 8.57 | 1.59 |  | −69.196 |  |  |  |  | 2.68 |
| CCCS(=O)(=O)N1CCC(N(C)c2cc(F)cc(/C=C(\C)[C@H]3OC(=O)C[C@H](O)CC[C@H](C)[C@@H](OC(=O)N4CCN(C)CC4)/C=C/[C@@H]3C)c2)CC1 [Compound 182] | 208 | 40.1 | 86.4 |  | −69.521 |  |  |  |  | 23.4 |
| C/C(=C\c1cc(F)cc(N(C)C2CCN(S(=O)(=O)c3cn(C)cn3)CC2)c1)[C@H]1OC(=O)C[C@H](O)CC[C@H](C)[C@@H](OC(=O)N2CCN(C)CC2)/C=C/[C@@H]1C [Compound 184] | 18.1 | 11.6 | 14.4 | 59.8 | −85.535 |  |  |  |  |  |
| C/C(=C\c1cc(F)cc(N2CCCNC2=O)c1)[C@H]1OC(=O)C[C@H](O)CC[C@H](C)[C@@H](OC(=O)N2CCN(C)CC2)/C=C/[C@@H]1C [Compound 79] | 18 | 12.3 | 2.14 |  | −72.802 |  |  |  |  | 4.01 |
| C/C(=C\c1cc(F)cc(N(C)C2CCN(C(=O)c3ccccc3)CC2)c1)[C@H]1OC(=O)C[C@H](O)CC[C@H](C)[C@@H](OC(=O)N2CCN(C)CC2)/C=C/[C@@H]1C [Compound 180] | 29.9 | 24.6 | 42.3 | 14.4 | −86.471 |  |  |  |  |  |
| CC(=O)N1CCC(CN(C)c2cc(F)cc(/C=C(\C)[C@H]3OC(=O)C[C@H](O)CC[C@H](C)[C@@H](OC(=O)N4CCN(C)CC4)/C=C/[C@@H]3C)c2)CC1 [Compound 186] | 41.8 | 17.4 | 12.6 |  | −70.969 |  |  |  |  | 14.5 |
| C/C(=C\c1cc(F)c2cnn(C3CCN(S(C)(=O)=O)CC3)c2c1)[C@H]1OC(=O)C[C@H](O)CC[C@H](C)[C@@H](OC(=O)N2CCN(C)CC2)/C=C/[C@@H]1C [Compound 196] | 30 | 19.6 | 13.2 |  |  | 1.529 | −90.418 | 1.83 |  |  |
| C/C(=C\c1cc(F)cc(N2CCN(C(=O)Cn3cccn3)CC2)c1)[C@H]1OC(=O)C[C@H](O)CC[C@H](C)[C@@H](OC(=O)NCc2ccncn2)/C=C/[C@@H]1C [Compound 222, [(2S,3S,4E,6R,7S,10R)-2-[(E)-1-[3-fluoro-5-[4-(2-pyrazol-1-ylacetyl)piperazin-1-yl]phenyl]prop-1-en-2-yl]-10-hydroxy-3,7-dimethyl-12-oxo-1-oxacyclododec-4-en-6-yl] N-(pyrimidin-4-ylmethyl)carbamate] | 116 | 53.2 | 23.6 |  |  | 2.179 | −58.410 |  | 69.4 |  |
| COCCn1nnc2c(F)cc(/C=C(\C)[C@H]3OC(=O)C[C@H](O)CC[C@H](C)[C@@H](OC(=O)N4CCN(C)CC4)/C=C/[C@@H]3C)cc21 [Compound 159] | 88.3 | 10.2 | 1.84 | 3.45 | −65.047 |  |  |  |  |  |
| C/C(=C\c1cc(F)cc(N2CCN(C(=O)C3COC3)CC2)c1)[C@H]1OC(=O)C[C@H](O)CC[C@H](C)[C@@H](OC(=O)N2CCN(C)CC2)/C=C/[C@@H]1C [Compound 153] | 14.5 | 14.8 | 4.83 | 2.34 | −81.206 |  |  |  |  |  |
| C/C(=C\c1cc(F)cc(N2CCN(C(=O)Cn3cccn3)CC2)c1)[C@H]1OC(=O)C[C@H](O)CC[C@H](C)[C@@H](OC(=O)N2CC[C@@H](F)C2)/C=C/[C@@H]1C [Compound 231, [(2S,3S,4E,6R,7S,10R)-2-[(E)-1-[3-fluoro-5-[4-(2-pyrazol-1-ylacetyl)piperazin-1-yl]phenyl]prop-1-en-2-yl]-10-hydroxy-3,7-dimethyl-12-oxo-1-oxacyclododec-4-en-6-yl] (3R)-3-fluoropyrrolidine-1-carboxylate] | 513 | 5.28 | 26 |  |  | 97.051 | −59.209 | 22.7 |  |  |
| COCCn1cnc2c(F)cc(/C=C(\C)[C@H]3OC(=O)C[C@H](O)CC[C@H](C)[C@@H](OC(=O)N4CCN(C)CC4)/C=C/[C@@H]3C)cc21 [Compound 142] | 12.9 | 6.99 | 1.35 | 2.19 | −69.213 |  |  |  |  |  |
| C/C(=C\c1cc(F)cc(N2CCN(C(=O)[C@H]3CCOC3)CC2)c1)[C@H]1OC(=O)C[C@H](O)CC[C@H](C)[C@@H](OC(=O)N2CCN(C)CC2)/C=C/[C@@H]1C [Compound 151] | 17.9 | 11.4 | 3.41 |  | −83.213 |  |  |  |  | 2.24 |
| C/C(=C\c1cc(F)cc(OC2CCN(S(C)(=O)=O)CC2)c1)[C@H]1OC(=O)C[C@H](O)CC[C@H](C)[C@@H](OC(=O)N2CCN(C)CC2)/C=C/[C@@H]1C [Compound 194] | 30.1 | 25.9 | 10.7 | 6.73 | −75.631 |  |  |  |  |  |
